Measured values: patent US20060211002A1, “Antibiotic susceptibility and virulence factor detection in Pseudomonas aeruginosa” (priority 2005, published 2006)
Where two headings read alike, the source gives them in different places.

Key:
[1] = system: 60 clinical P. aeruginosa isolates; assay: Antibiotic susceptibility testing, NEG MIC Type 30 panel on MicroScan WalkAway-96 SI, MICs interpreted according to NCCLS guidelines; assay type: cell-based, Pseudomonas aeruginosa; conditions: for MIC: Pseudomonas aeruginosa, read-out: 60 MIC
Excerpt: The wild-type reference strain P. aeruginosa PAO1 was obtained from the ATCC (AT47085). The other P. aeruginosa strains were collected from patients at the Robert Bosch Hospital in Stuttgart, Germany. They were recovered from respiratory samples (n=51), swabs (n=5), urine (n=2) and faeces (n=2). All isolates were identified with the API 20NE system (bioMerieux, Marcy l'Etoile, France) and the NEG Breakpoint Combo Type 30 panel on the MicroScan WalkAway®-96 SI system (Dade Behring, Liederbach, Germany). All bacterial strains were either routinely cultured at 37° C. on Mueller-Hinton (MH) agar or grown in Luria Bertani broth (LB).
(§1) The antibiotic susceptibility was determined with the NEG MIC Type 30 panel on the MicroScan WalkAway®-96 SI system. The MICs were interpreted according to the NCCLS guidelines.
The test collective of P. aeruginosa isolates was recovered from three intensive care units (ICU) or other hospital wards as far as an unusual multidrug resistance was observed. […] 4.

[2] = system: 60 clinical P. aeruginosa isolates; parameters: species or system Pseudomonas aeruginosa; conditions: predicted from mutations and resistance genes found by array in 60 isolates
Description: The 60 P. aeruginosa isolates were tested with the array applying the same hybridization conditions. Tab.
In order to compare genotype and phenotype based resistance profiles, we calculated a cumulative resistance rate against different groups of antibiotics based on the array data (Tab. 6).

[3] = system: 3 consecutive Pseudomonas aeruginosa isolates from the same patient; assay: Phenotypic susceptibility profile of 3 consecutive isolates from the same patient; assay type: cell-based; conditions: S/R phenotype
Description: as §1

[4] = Table 3, P. aeruginosa test collective
[5] = Table 6, MIC tied to the resistant isolates, NCCLS interpretation
[6] = Table 6, phenotypic resistance rate

Molecule | % of resistant isolates out of 60 [1, 4] | Number of resistant isolates out of 60 [1, 4] | 60 MIC [1, 5] | Number of resistant isolates out of 60 ([1]; Table 6, phenotypic resistance) | % of resistant isolates out of 60 [1, 6] | Cumulative resistance predicttion deduced from array [2] | MIC [1] | susceptibility rate ([1]; test collective of isolates) | MIC [1, 5] | Susceptibility profile, Isolate 2 ([3]; collected one week after the first isolate) | Susceptibility profile, Isolate 1 ([3]; first isolate) | Susceptibility profile, Isolate 3 ([3]; last of three isolates collected within three weeks) | resistance rate ([1]; test collective of isolates)
gentamicin | 37% | 22 | >8 µg/mL | 22 | 37% | 45% | – | – | – | – | – | – | –
C[C@@H](O)[C@H]1C(=O)N2C(C(=O)O)=C(SCCN=CN)C[C@H]12 [Imipenem, imipenem] | 45% | 27 | – | 27 | 45% | – | > 8 µg/mL | less than 55% | – | – | – | – | –
C[C@H]1COc2c(N3CCN(C)CC3)c(F)cc3c(=O)c(C(=O)O)cn1c23 [Levofloxacin, levofloxacin] | 43% | 26 | – | 26 | 43% | – | > 4 µg/mL | – | – | – | – | – | –
CCN1CCN(C(=O)N[C@@H](C(=O)N[C@@H]2C(=O)N3[C@@H]2SC(C)(C)[C@@H]3C(=O)O)c2ccccc2)C(=O)C1=O [Piperacillin, piperacillin] | 35% | 21 | – | 21 | 35% | 38% | – | – | > 64 µg/mL | – | – | – | –
NC[C@H]1O[C@H](O[C@H]2[C@H](O)[C@@H](O[C@H]3O[C@H](CO)[C@@H](O)[C@H](N)[C@H]3O)[C@H](N)C[C@@H]2N)[C@H](N)C[C@@H]1O [Tobramycin, tobramycin] | 10% | 6 | – | 6 | 10% | – | > 8 µg/mL | – | – | susceptible | susceptible | resistance | –
NCC[C@H](O)C(=O)N[C@@H]1C[C@H](N)[C@@H](O[C@H]2O[C@H](CN)[C@@H](O)[C@H](O)[C@H]2O)[C@H](O)[C@H]1O[C@H]1O[C@H](CO)[C@@H](O)[C@H](N)[C@H]1O [Amikacin, amikacin] | 17% | 10 | – | 10 | 17% | – | > 32 µg/mL | – | – | – | – | – | –
colistin | 0% | 0 | – | 0 | 0% | 0% | – | – | – | – | – | – | 0%
CC(C)(O/N=C(\C(=O)N[C@@H]1C(=O)N2C(C(=O)[O-])=C(C[n+]3ccccc3)CS[C@H]12)c1csc(N)n1)C(=O)O [Ceftazidim, ceftazidime] | 33% | 20 | >16 µg/mL | 20 | 33% | – | – | – | – | – | – | – | –
